Data from patent US10519152B2, “Compounds and their use in treating cancer” (AstraZeneca AB, priority 2017, dated 2019).

Target: T1, Estrogen Receptor (ERα) in MCF-7 human ductal carcinoma breast cell line (Homo sapiens, UniProt P03372)
T1 construct: endogenous in cells; host or cells: MCF-7
T1 sequence (P03372 1-595): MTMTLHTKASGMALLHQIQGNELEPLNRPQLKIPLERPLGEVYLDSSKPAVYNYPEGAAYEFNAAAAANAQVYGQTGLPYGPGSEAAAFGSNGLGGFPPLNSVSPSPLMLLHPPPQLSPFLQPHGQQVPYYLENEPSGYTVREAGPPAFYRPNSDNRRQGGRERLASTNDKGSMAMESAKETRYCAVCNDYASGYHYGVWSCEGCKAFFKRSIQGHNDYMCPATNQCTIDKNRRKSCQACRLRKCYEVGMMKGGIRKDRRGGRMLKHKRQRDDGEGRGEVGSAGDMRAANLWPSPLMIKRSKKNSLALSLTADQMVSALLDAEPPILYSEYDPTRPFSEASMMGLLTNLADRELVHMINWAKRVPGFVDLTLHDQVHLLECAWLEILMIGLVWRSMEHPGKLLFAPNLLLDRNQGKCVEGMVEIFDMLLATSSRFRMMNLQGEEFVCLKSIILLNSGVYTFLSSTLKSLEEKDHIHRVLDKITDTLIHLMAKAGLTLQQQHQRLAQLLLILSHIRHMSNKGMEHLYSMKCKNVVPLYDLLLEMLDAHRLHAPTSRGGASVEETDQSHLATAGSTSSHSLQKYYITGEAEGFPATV
Assay: MCF-7 ER degradation assay (cell based immuno-fluorescence)
Conditions: MCF-7 cells; for ER degradation ≥ 90% at 0.3 μM: ER degradation by fulvestrant at 0.3 μM is defined as 100%; for DC50: 18-22 hours incubation, 50% reduction of ERα expression, single experiment or average of two or more, read-out: MCF-7 ER degradation IC50
Description: MCF-7 ER Degradation Assay
The ability of compounds to down-regulate Estrogen Receptor (ER) numbers was assessed in a cell based immuno-fluorescence assay using the MCF-7 human ductal carcinoma breast cell line. MCF-7 cells were revived directly from a cryovial (approx 5×10^6 cells) in Assay Medium (phenol red free Dulbecco's Modified Eagle's medium (DMEM); Sigma D5921) containing 2 mM L-Glutamine and 5% (v/v) Charcoal/Dextran treated foetal calf serum. Cells were syringed once using a sterile 18 G×1.5 inch (1.2×40 mm) broad gauge needle and cell density was measured using a Coulter Counter (Beckman). Cells were further diluted in Assay Medium to a density of 3.75×10^4 cells per mL and 40 μL per well added to transparent bottomed, black, tissue culture-treated 384 well plates (Costar, No. 3712) using a Thermo Scientific Matrix WellMate or Thermo Multidrop. Following cell seeding, plates were incubated overnight at 37° C., 5% CO2 (Liconic carousel incubator). Test data was generated using the LabCyte Echo™ model 555 compound reformatter which is part of an automated workcell (Integrated Echo 2 workcell). Compound stock solutions (10 mM) of the test compounds were used to generate a 384 well compound dosing plate (Labcyte P-05525-CV1). 40 μL of each of the 10 mM compound stock solutions was dispensed into the first quadrant well and then 1:100 step-wise serial dilutions in DMSO were performed using a Hydra II (MATRIX UK) liquid handling unit to give 40 μL of diluted compound into quadrant wells 2 (0.1 mM), 3 (1 μM) and 4 (0.01 μM), respectively. 40 μL of DMSO added to wells in row P on the source plate allowed for DMSO normalisation across the dose range. To dose the control wells 40 μL of DMSO was added to row O1 and 40 μL of 100 μM fulvestrant in DMSO was added to row O3 on the compound source plate.
The Echo uses acoustic technology to perform direct microplate-to-microplate transfers of DMSO compound solutions to assay plates. The system can be programmed to transfer volumes as low as 2.5 nL in multiple increments between microplates and in so doing generates a serial dilution of compound in the assay plate which is then back-filled to normalise the DMSO concentration across the dilution range. Compounds were dispensed onto the cell plates with a compound source plate prepared as above producing a 12 point duplicate […] dose range with 3-fold dilutions and one final 10-fold dilution using the Integrated Echo 2 workcell. The maximum signal control wells were dosed with DMSO to give a final concentration of 0.3%, and the minimum signal control wells were dosed with fulvestrant to give a final concentration of 100 nM accordingly. Plates were further incubated for 18-22 hours at 37° C., 5% CO2 and then fixed by the addition of 20 μL of 11.1% (v/v) formaldehyde solution (in phosphate buffered saline (PBS)) giving a final formaldehyde concentration of 3.7% (v/v). Cells were fixed at room temperature for 20 mins before being washed two times with 250 μL PBS/Proclin (PBS with a Biocide preservative) using a BioTek platewasher, 40 μL of PBS/Proclin was then added to all wells and the plates stored at 4° C. The fixing method described above was carried out on the Integrated Echo 2 workcell. Immunostaining was performed using an automated AutoElisa workcell. The PBS/Proclin was aspirated from all wells and the cells permeabilised with 40 μL PBS containing 0.5% Tween™ 20 (v/v) for 1 hour at room temperature. The plates were washed three times in 250 μL of PBS/0.05% (v/v) Tween 20 with Proclin (PBST with a Biocide preservative) and then 20 μL of ERα (SP1) Rabbit monoclonal antibody (Thermofisher) 1:1000 in PBS/Tween™/3% (w/v) Bovine Serum Albumin was added. The plates were incubated overnight at 4° C. (Liconic carousel incubator) and then washed three times in 250 μL of PBS/0.05% (v/v) Tween™ 20 with Proclin (PBST). […]

Cc1ncsc1-c1ccc(CNC(=O)[C@@H]2C[C@@H](O)CN2C(=O)[C@@H](NC(=O)COCC(F)(F)COCCCCCOc2cc(F)c([C@@H]3c4[nH]c5ccccc5c4C[C@@H](C)N3CC(C)(C)F)c(F)c2)C(C)(C)C)cc1 [Example 126, (2S,4R)-1-((S)-2-(2-(3-((5-(3,5-Difluoro-4-((1R,3R)-2-(2-fluoro-2-methylpropyl)-3-methyl-2,3,4,9-tetrahydro-1H-pyrido[3,4-b]indol-1-yl)phenoxy)pentyl)oxy)-2,2-difluoropropoxy)acetamido)-3,3-dimethylbutanoyl)-4-hydroxy-N-(4-(4-methylthiazol-5-yl)benzyl)pyrrolidine-2-carboxamide]
ER degradation ≥ 90% at 0.3 μM: •
DC50: 1.8 nM

Cc1ncsc1-c1ccc(CNC(=O)[C@@H]2C[C@@H](O)CN2C(=O)[C@@H](NC(=O)COCc2ccc(COc3cc(F)c([C@@H]4c5[nH]c6ccccc6c5C[C@@H](C)N4CC(C)(C)F)c(F)c3)cc2)C(C)(C)C)cc1 [Example 19, (2S,4R)-1-((S)-2-(2-((4-((3,5-difluoro-4-((1R,3R)-2-(2-fluoro-2-methylpropyl)-3-methyl-2,3,4,9-tetrahydro-1H-pyrido[3,4-b]indol-1-yl)phenoxy)methyl)benzyl)oxy)acetamido)-3,3-dimethylbutanoyl)-4-hydroxy-N-(4-(4-methylthiazol-5-yl)benzyl)pyrrolidine-2-carboxamide]
ER degradation ≥ 90% at 0.3 μM: ••
DC50: 3.2 nM

Cc1ncsc1-c1ccc(CNC(=O)[C@@H]2C[C@@H](O)CN2C(=O)[C@@H](NC(=O)COC[C@@H]2CC2COCCOc2cc(F)c([C@@H]3c4[nH]c5ccccc5c4C[C@@H](C)N3CC(C)(C)F)c(F)c2)C(C)(C)C)cc1 (single isomer, unassigned) [Example 123, (2S,4R)-1-[(2S)-2-[[2-[[(1R*2S*)-2-[2-[3,5-Difluoro-4-[(R,3R)-2-(2-fluoro-2-methyl-propyl)-3-methyl-1,3,4,9-tetrahydropyrido[3,4-b]indol-1-yl]phenoxy]ethoxymethyl]cyclopropyl]methoxy]acetyl]amino]-3,3-dimethyl-butanoyl]-4-hydroxy-N-[[4-(4-methylthiazol-5-yl)phenyl]methyl]pyrrolidine-2-carboxamide]
ER degradation ≥ 90% at 0.3 μM: •
DC50: 0.5 nM

Cc1ncsc1-c1ccc(CNC(=O)[C@@H]2C[C@@H](O)CN2C(=O)[C@@H](NC(=O)CCCCCCNC(=O)/C=C/c2cc(F)c([C@@H]3c4[nH]c5ccccc5c4C[C@@H](C)N3CC(C)(C)F)c(F)c2)C(C)(C)C)cc1 [Example 59, (2S,4R)-1-((S)-2-(7-((E)-3-(3,5-difluoro-4-((1R,3R)-2-(2-fluoro-2-methylpropyl)-3-methyl-2,3,4,9-tetrahydro-1H-pyrido[3,4-b]indol-1-yl)phenyl)acrylamido)heptanamido)-3,3-dimethylbutanoyl)-4-hydroxy-N-(4-(4-methylthiazol-5-yl)benzyl)pyrrolidine-2-carboxamide, Trifluoroacetic Acid]
ER degradation ≥ 90% at 0.3 μM: ••
DC50: 0.8 nM

Cc1ncsc1-c1ccc(CNC(=O)[C@@H]2C[C@@H](O)CN2C(=O)[C@@H](NC(=O)C2(OCCCOCCCOc3cc(F)c([C@@H]4c5[nH]c6ccccc6c5C[C@@H](C)N4CC(C)(C)F)c(F)c3)CC2)C(C)(C)C)cc1 [Example 135, (2S,4R)-1-((S)-2-(1-(3-(3-(3,5-Difluoro-4-((1R,3R)-2-(2-fluoro-2-methylpropyl)-3-methyl-2,3,4,9-tetrahydro-1H-pyrido[3,4-b]indol-1-yl)phenoxy)propoxy)propoxy)cyclopropane-1-carboxamido)-3,3-dimethylbutanoyl)-4-hydroxy-N-(4-(4-methylthiazol-5-yl)benzyl)pyrrolidine-2-carboxamide]
ER degradation ≥ 90% at 0.3 μM: •

Cc1ncsc1-c1ccc(CNC(=O)[C@@H]2C[C@@H](O)CN2C(=O)[C@@H](NC(=O)COC[C@@H]2CC2COCCOc2cc(F)c([C@@H]3c4[nH]c5ccccc5c4C[C@@H](C)N3CC(C)(C)F)c(F)c2)C(C)(C)C)cc1 (single isomer, unassigned) [Example 124, (2S,4R)-1-[(2S)-2-[[2-[[(1R*2S*)-2-[2-[3,5-Difluoro-4-[(1R,3R)-2-(2-fluoro-2-methyl-propyl)-3-methyl-1,3,4,9-tetrahydropyrido[3,4-b]indol-1-yl]phenoxy]ethoxymethyl]cyclopropyl]methoxy]acetyl]amino]-3,3-dimethyl-butanoyl]-4-hydroxy-N-[[4-(4-methylthiazol-5-yl)phenyl]methyl]pyrrolidine-2-carboxamide]
ER degradation ≥ 90% at 0.3 μM: •
DC50: 0.8 nM
